Assays:
[1] = Maximal bubble pressure
[2] = xn = mol fraction of the nth substance listed; settings: Maximal bubble pressure

CCCCCCCCCC [decane]
[1]
Settings | surface tension liquid-gas [mN/m]
303.15 K | 22.9
308.15 K | 22.5
318.15 K | 21.66

CCCCCCCCCC [decane] + CCO
[2]
Settings | surface tension liquid-gas [mN/m]
303.15 K, x2 = 0.034 | 22.85
303.15 K, x2 = 0.101 | 22.6
303.15 K, x2 = 0.189 | 22.3
303.15 K, x2 = 0.29 | 22.1
303.15 K, x2 = 0.395 | 21.95
303.15 K, x2 = 0.492 | 21.85
303.15 K, x2 = 0.59 | 21.75
303.15 K, x2 = 0.696 | 21.65
303.15 K, x2 = 0.801 | 21.55
303.15 K, x2 = 0.907 | 21.45
303.15 K, x2 = 0.959 | 21.44
303.15 K, x2 = 0.982 | 21.43
308.15 K, x2 = 0.076 | 22.25
308.15 K, x2 = 0.173 | 22
308.15 K, x2 = 0.286 | 21.8
308.15 K, x2 = 0.373 | 21.68
308.15 K, x2 = 0.486 | 21.54
308.15 K, x2 = 0.593 | 21.46
308.15 K, x2 = 0.695 | 21.4
308.15 K, x2 = 0.8 | 21.29
308.15 K, x2 = 0.902 | 21.2
308.15 K, x2 = 0.954 | 21.17
318.15 K, x2 = 0.067 | 21.51
318.15 K, x2 = 0.16 | 21.25
318.15 K, x2 = 0.272 | 21
318.15 K, x2 = 0.366 | 20.83
318.15 K, x2 = 0.472 | 20.67
318.15 K, x2 = 0.585 | 20.54
318.15 K, x2 = 0.698 | 20.48
318.15 K, x2 = 0.803 | 20.37
318.15 K, x2 = 0.907 | 20.3
318.15 K, x2 = 0.958 | 20.36

CCCCCCCCCCCC [dodecane]
[1]
Settings | surface tension liquid-gas [mN/m]
298.15 K | 24.9
303.15 K | 24.73

CCCCCCCCCCCC [dodecane] + CCO
surface tension liquid-gas [mN/m], [2]
Settings | 298.15 K | 303.15 K
x2 = 0.055 | 24.87 | 24.6
x2 = 0.09 | – | 24.5
x2 = 0.097 | 24.72 | –
x2 = 0.174 | – | 24.05
x2 = 0.184 | 24.33 | –
x2 = 0.247 | – | 23.7
x2 = 0.264 | 23.95 | –
x2 = 0.332 | – | 23.35
x2 = 0.366 | 23.47 | –
x2 = 0.443 | – | 22.92
x2 = 0.472 | 23.1 | –
x2 = 0.571 | – | 22.65
x2 = 0.589 | 22.97 | –
x2 = 0.684 | – | 22.52
x2 = 0.692 | 22.92 | –
x2 = 0.795 | – | 22.39
x2 = 0.799 | 22.78 | –
x2 = 0.903 | – | 22.16
x2 = 0.905 | 22.57 | –
x2 = 0.951 | 22.38 | 21.98

CCO [ethanol]
[1]
Settings | surface tension liquid-gas [mN/m]
298.15 K | 22.1
303.15 K | 21.7
308.15 K | 21.3
313.15 K | 20.71
318.15 K | 20.4

CCCCCCCC [octane]
[1]
Settings | surface tension liquid-gas [mN/m]
298.15 K | 21.1
308.15 K | 20.2
318.15 K | 19.2

CCCCCCCC [octane] + CCO
[2]
Settings | surface tension liquid-gas [mN/m]
298.15 K, x2 = 0.099 | 20.91
298.15 K, x2 = 0.208 | 20.9
298.15 K, x2 = 0.294 | 20.79
298.15 K, x2 = 0.391 | 20.8
298.15 K, x2 = 0.512 | 20.75
298.15 K, x2 = 0.604 | 20.81
298.15 K, x2 = 0.707 | 20.9
298.15 K, x2 = 0.809 | 21.03
298.15 K, x2 = 0.871 | 21.19
298.15 K, x2 = 0.908 | 21.44
298.15 K, x2 = 0.955 | 21.69
308.15 K, x2 = 0.105 | 19.95
308.15 K, x2 = 0.162 | 19.83
308.15 K, x2 = 0.209 | 19.81
308.15 K, x2 = 0.31 | 19.73
308.15 K, x2 = 0.403 | 19.71
308.15 K, x2 = 0.5 | 19.72
308.15 K, x2 = 0.607 | 19.71
308.15 K, x2 = 0.707 | 19.86
308.15 K, x2 = 0.807 | 20.05
308.15 K, x2 = 0.904 | 20.39
308.15 K, x2 = 0.955 | 20.77
318.15 K, x2 = 0.103 | 18.96
318.15 K, x2 = 0.205 | 18.71
318.15 K, x2 = 0.345 | 18.64
318.15 K, x2 = 0.448 | 18.6
318.15 K, x2 = 0.598 | 18.63
318.15 K, x2 = 0.703 | 18.69
318.15 K, x2 = 0.809 | 18.83
318.15 K, x2 = 0.91 | 19.18
318.15 K, x2 = 0.958 | 19.85

CCCCCCCCCCCCCC [tetradecane]
Settings | surface tension liquid-gas [mN/m]
[1], 313.15 K | 24.8

CCCCCCCCCCCCCC [tetradecane] + CCO
[2], 313.15 K
Settings | surface tension liquid-gas [mN/m]
x2 = 0.054 | 24.67
x2 = 0.072 | 24.67
x2 = 0.143 | 24.53
x2 = 0.191 | 24.25
x2 = 0.3 | 23.3
x2 = 0.412 | 22.52
x2 = 0.522 | 21.98
x2 = 0.62 | 21.76
x2 = 0.702 | 21.8
x2 = 0.8 | 21.66
x2 = 0.9 | 21.4
x2 = 0.945 | 21.17
x2 = 0.967 | 21.02
x2 = 0.988 | 20.82

Source: the NIST ThermoML archive (doi:10.1016/j.jct.2011.04.005)
